Measured values as given in patent US12649751B2 (Arcus Biosciences, Inc., priority 2022, dated 2026).
Read-outs that look alike come from different tables or passages of the source.

How the values were obtained:
HPK1 = HPK1 (Homo sapiens, UniProt Q92918); experiment: HPK1 Biochemical Assay (ADP-Glo luminescence; low ATP 10 μM or high ATP 200 μM)
[1] = system: p-SLP-76 (Ser376) in Jurkat cells; experiment: pSLP76 Cellular Assay (AlphaLISA SureFire Ultra p-SLP-76 (Ser376), anti-CD3 activated Jurkat cells); type: cell-based; conditions: read-out: Cellular Potency
Outline: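 Read-out is AlphaLISA p-SLP-76 (Ser376) signal at 570 nm in Jurkat lysates, with IC50 fitted by 4-parameter logistic. Cells were starved overnight, exposed 1 h at 37 °C to 22 twofold compound dilutions in HBSS, then activated 45 min with anti-CD3 (0.025 mg/ml stock added).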

[2] = 2 nM HPK1, 10 μM ATP, read-out: Biochemical Potency (low ATP)
[3] = 5 nM HPK1, 200 μM ATP, read-out: Biochemical Potency (high ATP)
[4] = Homo sapiens, Jurkat cells, anti-CD3 stimulation, pSLP76
[5] = HPK1 ADP-Glo assay, high ATP (200 μM ATP, 5 nM HPK1), read-out: Biochemical Potency (high ATP)
[6] = Homo sapiens, pSLP76 (Ser376) AlphaLISA, anti-CD3 activated Jurkat cells

Chain of HPK1 (Q92918 whole entry, species assumed): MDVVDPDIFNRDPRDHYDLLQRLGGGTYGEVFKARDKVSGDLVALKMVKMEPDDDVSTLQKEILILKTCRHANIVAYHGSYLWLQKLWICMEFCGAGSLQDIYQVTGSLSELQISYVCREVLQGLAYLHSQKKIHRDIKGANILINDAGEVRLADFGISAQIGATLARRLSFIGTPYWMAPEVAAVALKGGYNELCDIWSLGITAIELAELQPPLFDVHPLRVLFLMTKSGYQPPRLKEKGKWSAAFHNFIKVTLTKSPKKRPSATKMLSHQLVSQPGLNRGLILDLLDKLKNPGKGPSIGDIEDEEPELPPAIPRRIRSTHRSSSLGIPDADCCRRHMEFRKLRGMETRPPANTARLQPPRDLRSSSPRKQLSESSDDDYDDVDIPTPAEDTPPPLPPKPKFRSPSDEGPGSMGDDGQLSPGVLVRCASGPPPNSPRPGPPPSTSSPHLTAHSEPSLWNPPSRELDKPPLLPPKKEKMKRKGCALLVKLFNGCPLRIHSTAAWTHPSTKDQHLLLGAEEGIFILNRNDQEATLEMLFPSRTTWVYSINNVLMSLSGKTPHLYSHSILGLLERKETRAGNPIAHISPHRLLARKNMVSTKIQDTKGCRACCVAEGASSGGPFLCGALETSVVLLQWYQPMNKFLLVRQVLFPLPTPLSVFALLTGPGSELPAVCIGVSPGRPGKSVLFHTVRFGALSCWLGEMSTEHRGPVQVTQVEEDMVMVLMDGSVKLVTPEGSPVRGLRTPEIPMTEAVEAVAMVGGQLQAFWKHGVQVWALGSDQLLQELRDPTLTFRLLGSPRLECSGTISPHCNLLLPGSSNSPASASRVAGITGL

| Structure (SMILES) | IC50 (HPK1; [2]) [nM] | IC50 [1, 4] [nM] | IC50 (HPK1; [5]) [nM] | IC50 [1, 6] [nM] | other results |
| --- | --- | --- | --- | --- | --- |
| CN1C[C@@H]2C[C@H]1CN2c1cncc(Nc2cc3nc(-c4cccc(NS(C)(=O)=O)c4)sc3cn2)n1 [Example 285, N-{3-[6-({6-[(1S,4S)-5-methyl-2,5-diazabicyclo[2.2.1]heptan-2-yl]pyrazin-2-yl}amino)-[1,3]thiazolo[5,4-c]pyridin-2-yl]phenyl}methanesulfonamide] | < 100 | 100 to 1000 |  |  | IC50 (HPK1; [3]): < 100 nM |
| Cc1cc(Nc2cc3nc(-c4cccc(S(=O)(=O)C5CC5)c4)sc3cn2)nc(N2C[C@@H]3C[C@H]2CN3CCO)n1 [Example 500] |  |  | < 100 | < 100 |  |
| CCN1C[C@@H]2C[C@H]1CN2c1nc(C)cc(Nc2cc3nc(-c4cccc(C(=O)N5CCC6(CCOC6)C5)c4)sc3cn2)n1 (some centres unmarked) [Example 530] |  |  | < 100 | 100 to 1000 |  |
| Cc1cc(Nc2cc3nc(-c4ccnc(CC5CC5)c4)sc3cn2)nc(N2C[C@@H]3C[C@H]2CN3CCO)n1 [Example 308, 2-[(1S,4S)-5-(4-{2-[2-(cyclopropylmethyl)-4-pyridyl]-3-thia-1,5-diaza-6-indenylamino}-6-methyl-2-pyrimidinyl)-2,5-diazabicyclo[2.2.1]hept-2-yl]ethanol] |  |  | < 100 | < 100 |  |
| c1cncc(-c2nc3cc(Nc4ccc(C5CCOCC5)c(CN5CCCC5)n4)ncc3s2)c1 [Example 225, 5-(Oxan-4-yl)-N-[2-(pyridin-3-yl)-[1,3]thiazolo[5,4-c]pyridin-6-yl]-6-[(pyrrolidin-1-yl)methyl]pyridin-2-amine] | < 100 | 100 to 1000 |  |  |  |
| CCN1C[C@@H]2C[C@H]1CN2c1nc(C)cc(Nc2cc3nc(O[C@H](C)c4c(Cl)ccc(F)c4Cl)sc3cn2)n1 [Example 485] |  |  | < 100 | 100 to 1000 |  |
| CCNC(C)c1nc(Nc2cc3nc(-c4c(F)cccc4F)sc3cn2)ccc1N1CCOCC1 (centres unmarked) [Example 278, N-[2-(2,6-Difluorophenyl)-[1,3]thiazolo[5,4-c]pyridin-6-yl]-6-[1-(ethylamino)ethyl]-5-(morpholin-4-yl)pyridin-2-amine] | < 100 | > 5000 |  |  |  |
| Cc1cc(-c2nc3cc(Nc4cccc(N5C[C@@H]6C[C@H]5CN6C)n4)ncc3s2)ccn1 [Example 96, 6-[(1S,4S)-5-Methyl-2,5-diazabicyclo[2.2.1]heptan-2-yl]-N-[2-(2-methylpyridin-4-yl)-[1,3]thiazolo[5,4-c]pyridin-6-yl]pyridin-2-amine] | < 100 | 100 to 1000 |  |  | IC50 (HPK1; [3]): < 100 nM |
| Cc1cccnc1-c1nc2cc(Nc3cncc(N4C[C@@H]5C[C@H]4CN5C)n3)ncc2s1 [Example 145, 6-[(1S,4S)-5-Methyl-2,5-diazabicyclo[2.2.1]heptan-2-yl]-N-[2-(3-methylpyridin-2-yl)-[1,3]thiazolo[5,4-c]pyridin-6-yl]pyrazin-2-amine] | < 100 | 100 to 1000 |  |  |  |
| Cc1cccnc1-c1nc2cc(Nc3cnc(C)c(N4C[C@@H]5C[C@H]4CN5)n3)ncc2s1 [Example 148, 6-[(1S,4S)-2,5-Diazabicyclo[2.2.1]heptan-2-yl]-5-methyl-N-[2-(3-methylpyridin-2-yl)-[1,3]thiazolo[5,4-c]pyridin-6-yl]pyrazin-2-amine] | < 100 | < 100 |  |  |  |
| Cc1cc(Nc2cc3nc(-c4cnn(C)c4)sc3cn2)nc(N2C[C@@H]3C[C@H]2CN3C[C@@H](C)O)n1 [Example 499] |  |  | < 100 | < 100 |  |
| Cc1cccnc1-c1nc2cc(Nc3ccnc(N4C[C@@H](N)C[C@H]4CO)n3)ncc2s1 [Example 155, [(2S,4S)-4-Mmino-1-(4-{[2-(3-methylpyridin-2-yl)-[1,3]thiazolo[5,4-c]pyridin-6-yl]amino}pyrimidin-2-yl)pyrrolidin-2-yl]methanol] | < 100 | 100 to 1000 |  |  |  |
| CN1C[C@@H]2C[C@H]1CN2c1cccc(Nc2cc3nc(-c4cccc(C(=O)N5CCCC5)c4)sc3cn2)n1 [Example 130, 6-[(1S,4S)-5-Methyl-2,5-diazabicyclo[2.2.1]heptan-2-yl]-N-{2-[3-(pyrrolidine-1-carbonyl)phenyl]-[1,3]thiazolo[5,4-c]pyridin-6-yl}pyridin-2-amine] | < 100 | 100 to 1000 |  |  |  |
| Cc1cc(Nc2cc3nc(-c4cnn(CS(C)(=O)=O)c4)sc3cn2)nc(N2C[C@@H]3C[C@H]2CN3CCO)n1 [Example 369] |  |  | < 100 | 100 to 1000 |  |
| CCN1C[C@@H]2C[C@H]1CN2c1nc(C)cc(Nc2cc3nc(-c4cccc(S(=O)(=O)N5CCCC5)c4)sc3cn2)n1 [Example 341] |  |  | < 100 | 100 to 1000 |  |
| CCN1C[C@@H]2C[C@H]1CN2c1nc(C)cc(Nc2cc3nc(-c4cccc(C(=O)N5CCOC[C@H]5C)c4)sc3cn2)n1 [Example 527] |  |  | < 100 | 100 to 1000 |  |
| Cc1cccnc1-c1nc2cc(Nc3ccc(C4CCOCC4)c(CN4CCCC4)n3)ncc2s1 [Example 212, N-[2-(3-Methylpyridin-2-yl)-[1,3]thiazolo[5,4-c]pyridin-6-yl]-5-(oxan-4-yl)-6-[(pyrrolidin-1-yl)methyl]pyridin-2-amine] | < 100 | < 100 |  |  |  |
| CCN1C[C@@H]2C[C@H]1CN2c1nc(C)cc(Nc2cc3nc(-c4cccc(C(=O)N5CCC[C@@H]5COC)c4)sc3cn2)n1 [Example 535] |  |  | < 100 | < 100 |  |
| CN1C[C@@H]2C[C@H]1CN2c1nccc(Nc2cc3nc(-c4cccc(N5CC[C@H](O)C5)c4)sc3cn2)n1 [Example 123, (3S)-1-{3-[6-({2-[(1S,4S)-5-Methyl-2,5-diazabicyclo[2.2.1]heptan-2-yl]pyrimidin-4-yl}amino)-[1,3]thiazolo[5,4-c]pyridin-2-yl]phenyl}pyrrolidin-3-ol] | < 100 | 1000 to 5000 |  |  | IC50 (HPK1; [3]): < 100 nM |
| Cc1cc(-c2nc3cc(Nc4ccc(C)c(O[C@H]5CCNC5)n4)ncc3s2)ccn1 [Example 172, 5-Methyl-N-[2-(2-methylpyridin-4-yl)-[1,3]thiazolo[5,4-c]pyridin-6-yl]-6-[(3S)-pyrrolidin-3-yloxy]pyridin-2-amine] | < 100 | < 100 |  |  |  |
| Cc1cc(Nc2cc3nc(-c4cccc(C(=O)N(C)C)c4)sc3cn2)nc(N2C[C@@H]3C[C@H]2CN3C2CCN(S(C)(=O)=O)CC2)n1 [Example 331] |  |  | 100 to 1000 | 1000 to 5000 |  |
| Cc1cc(Nc2cc3nc(-c4cnn5c4CN(S(C)(=O)=O)CC5)sc3cn2)nc(N2C[C@@H]3C[C@H]2CN3C)n1 [Example 570] |  |  | < 100 | < 100 |  |
| Cc1cccnc1-c1nc2cc(Nc3ccc(C)c(N4CC[C@@H](N)C4)n3)ncc2s1 [Example 74, 6-[(3R)-3-Aminopyrrolidin-1-yl]-5-methyl-N-[2-(3-methylpyridin-2-yl)-[1,3]thiazolo[5,4-c]pyridin-6-yl]pyridin-2-amine] | < 100 | > 5000 |  |  |  |
| CN1C[C@@H]2C[C@H]1CN2c1nccc(Nc2cc3nc(-c4ccnc(N5CC[C@@H](O)C5)c4)sc3cn2)n1 [Example 464] |  |  |  |  | IC50 (HPK1; HPK1 ADP-Glo assay, low ATP (10 μM ATP, 2 nM HPK1), read-out: Biochemical Potency (low ATP)): < 100 nM; IC50 ([1]; pSLP76 (Ser376) AlphaLISA, anti-CD3 activated Jurkat cells): 100 to 1000 nM |
| Cc1cccnc1-c1nc2cc(Nc3cccc(N4C[C@@H](N)C[C@H]4CO)n3)ncc2s1 [Example 66, [(2S,4S)-4-Amino-1-(6-{[2-(3-methylpyridin-2-yl)-[1,3]thiazolo[5,4-c]pyridin-6-yl]amino}pyridin-2-yl)pyrrolidin-2-yl]methanol] | < 100 | 1000 to 5000 |  |  |  |
